# Assay results reported in article PMC11032351, “Epigenetic modulation through BET bromodomain inhibitors as a novel therapeutic strategy for progranulin-deficient frontotemporal dementia” (Scientific Reports, 2024).
# Key:
# [1] = test system: lysosomal genes; test: RNA sequencing of human dermal fibroblasts, lysosomal genes; assay type: cell-based; details: 24 h
# Procedure: Non-immortalized HDF cells (UCSF Memory and Aging Center, FTD25(X)) were cultured in high glucose DMEM with 10% FBS with supplemented L-glutamine and Pen/Strep, and grown in 100 mm plates for treatment. Cells were treated with DMSO or 1 μM mivebresib (1% DMSO) for 24 h. Trizol (Invitrogen) was used to isolate total cellular RNA, according to the manufacturer's protocol. RNA concentrations were assessed using a NanoDrop spectrophotometer (Thermo Scientific) and samples were diluted to 100 ng/10 μL in nuclease-free water (Ambion). 5 μg of each RNA sample was submitted for processing. Gene set enrichment analysis for lysosomal genes (list from Sardiello et al. 2009, Table S1) was performed using GSEA Desktop v3.0, with the following input parameters: number of permutations: 1000, scoring scheme: weighted, normalization mode: […], ranking metric: Signal2Noise, sorting: real[42]-[44]. […] Input queried against “Literature” library.
# [2] = biological target: recombinant BRD4 BD2; design: method as in PMID 31969702, PMID 32193360, doi:10.1002/anse.202200020; details: read-out: KD against recombinant BRD4 BD2; cited from earlier work
compound,measurement,setting,value
CCS(=O)(=O)Nc1ccc(Oc2ccc(F)cc2F)c(-c2cn(C)c(=O)c3[nH]ccc23)c1 [mivebresib],lysosomal genes significantly upregulated,"[1]; 1 µM, pre-defined list of lysosomal genes",68/89
same,Log2(fold-change) ABCA2,"[1]; gene ABCA2, 1 µM, vs DMSO",0.969
same,Log2(fold-change) ABCB9,"[1]; gene ABCB9, 1 µM, vs DMSO",0.753
same,Log2(fold-change) ACP2,"[1]; gene ACP2, 1 µM, vs DMSO",0.071
same,Log2(fold-change) ACP5,"[1]; gene ACP5, 1 µM, vs DMSO",1.631
same,Log2(fold-change) AGA,"[1]; gene AGA, 1 µM, vs DMSO",1.111
same,Log2(fold-change) ARSA,"[1]; gene ARSA, 1 µM, vs DMSO",0.958
same,Log2(fold-change) ARSB,"[1]; gene ARSB, 1 µM, vs DMSO",0.697
same,Log2(fold-change) ARSG,"[1]; gene ARSG, 1 µM, vs DMSO",0.426
same,Log2(fold-change) ASAH1,"[1]; gene ASAH1, 1 µM, vs DMSO",1.724
same,Log2(fold-change) CD63,"[1]; gene CD63, 1 µM, vs DMSO",0.465
same,Log2(fold-change) CD68,"[1]; gene CD68, 1 µM, vs DMSO",0.237
same,Log2(fold-change) CLCN7,"[1]; gene CLCN7, 1 µM, vs DMSO",1.349
same,Log2(fold-change) CLN3,"[1]; gene CLN3, 1 µM, vs DMSO",-0.112
same,Log2(fold-change) CLN5,"[1]; gene CLN5, 1 µM, vs DMSO",0.974
same,Log2(fold-change) CPVL,"[1]; gene CPVL, 1 µM, vs DMSO",4.550
same,Log2(fold-change) CREG1,"[1]; gene CREG1, 1 µM, vs DMSO",1.959
same,Log2(fold-change) CTBS,"[1]; gene CTBS, 1 µM, vs DMSO",-0.006
same,Log2(fold-change) CTNS,"[1]; gene CTNS, 1 µM, vs DMSO",1.077
same,Log2(fold-change) CTSA,"[1]; gene CTSA, 1 µM, vs DMSO",1.344
same,Log2(fold-change) CTSB,"[1]; gene CTSB, 1 µM, vs DMSO",0.947
same,Log2(fold-change) CTSC,"[1]; gene CTSC, 1 µM, vs DMSO",0.179
same,Log2(fold-change) CTSD,"[1]; gene CTSD, 1 µM, vs DMSO",1.383
same,Log2(fold-change) CTSF,"[1]; gene CTSF, 1 µM, vs DMSO",1.580
same,Log2(fold-change) CTSH,"[1]; gene CTSH, 1 µM, vs DMSO",2.652
same,Log2(fold-change) CTSK,"[1]; gene CTSK, 1 µM, vs DMSO",2.602
same,Log2(fold-change) CTSS,"[1]; gene CTSS, 1 µM, vs DMSO",1.574
same,Log2(fold-change) CTSZ,"[1]; gene CTSZ, 1 µM, vs DMSO",0.095
same,Log2(fold-change) DNASE2,"[1]; gene DNASE2, 1 µM, vs DMSO",0.759
same,Log2(fold-change) ENTPD4,"[1]; gene ENTPD4, 1 µM, vs DMSO",-0.066
same,Log2(fold-change) EPDR1,"[1]; gene EPDR1, 1 µM, vs DMSO",0.350
same,Log2(fold-change) FUCA1,"[1]; gene FUCA1, 1 µM, vs DMSO",2.294
same,Log2(fold-change) GAA,"[1]; gene GAA, 1 µM, vs DMSO",1.285
same,Log2(fold-change) GALC,"[1]; gene GALC, 1 µM, vs DMSO",0.272
same,Log2(fold-change) GALNS,"[1]; gene GALNS, 1 µM, vs DMSO",0.664
same,Log2(fold-change) GBA,"[1]; gene GBA, 1 µM, vs DMSO",0.975
same,Log2(fold-change) GGH,"[1]; gene GGH, 1 µM, vs DMSO",-0.787
same,Log2(fold-change) GLA,"[1]; gene GLA, 1 µM, vs DMSO",0.381
same,Log2(fold-change) GLB1,"[1]; gene GLB1, 1 µM, vs DMSO",0.633
same,Log2(fold-change) GM2A,"[1]; gene GM2A, 1 µM, vs DMSO",0.722
same,Log2(fold-change) GNS,"[1]; gene GNS, 1 µM, vs DMSO",1.166
same,Log2(fold-change) GUSB,"[1]; gene GUSB, 1 µM, vs DMSO",-0.134
same,Log2(fold-change) HEXA,"[1]; gene HEXA, 1 µM, vs DMSO",1.135
same,Log2(fold-change) HEXB,"[1]; gene HEXB, 1 µM, vs DMSO",1.117
same,Log2(fold-change) HGSNAT,"[1]; gene HGSNAT, 1 µM, vs DMSO",0.896
same,Log2(fold-change) HPSE,"[1]; gene HPSE, 1 µM, vs DMSO",1.426
same,Log2(fold-change) HYAL1,"[1]; gene HYAL1, 1 µM, vs DMSO",0.217
same,Log2(fold-change) HYAL2,"[1]; gene HYAL2, 1 µM, vs DMSO",-0.168
same,Log2(fold-change) IDS,"[1]; gene IDS, 1 µM, vs DMSO",1.156
same,Log2(fold-change) IDUA,"[1]; gene IDUA, 1 µM, vs DMSO",1.057
same,Log2(fold-change) IFI30,"[1]; gene IFI30, 1 µM, vs DMSO",1.145
same,Log2(fold-change) LAMP1,"[1]; gene LAMP1, 1 µM, vs DMSO",1.227
same,Log2(fold-change) LAMP2,"[1]; gene LAMP2, 1 µM, vs DMSO",1.082
same,Log2(fold-change) LAPTM4A,"[1]; gene LAPTM4A, 1 µM, vs DMSO",0.460
same,Log2(fold-change) LAPTM5,"[1]; gene LAPTM5, 1 µM, vs DMSO",0.199
same,Log2(fold-change) LGMN,"[1]; gene LGMN, 1 µM, vs DMSO",1.455
same,Log2(fold-change) LIPA,"[1]; gene LIPA, 1 µM, vs DMSO",0.574
same,Log2(fold-change) LITAF,"[1]; gene LITAF, 1 µM, vs DMSO",1.022
same,Log2(fold-change) LMBRD1,"[1]; gene LMBRD1, 1 µM, vs DMSO",0.119
same,Log2(fold-change) MAN2B1,"[1]; gene MAN2B1, 1 µM, vs DMSO",0.586
same,Log2(fold-change) MAN2B2,"[1]; gene MAN2B2, 1 µM, vs DMSO",0.870
same,Log2(fold-change) MANBA,"[1]; gene MANBA, 1 µM, vs DMSO",1.687
same,Log2(fold-change) MCOLN1,"[1]; gene MCOLN1, 1 µM, vs DMSO",2.564
same,Log2(fold-change) MFSD8,"[1]; gene MFSD8, 1 µM, vs DMSO",-0.317
same,Log2(fold-change) MPO,"[1]; gene MPO, 1 µM, vs DMSO",1.298
same,Log2(fold-change) NAAA,"[1]; gene NAAA, 1 µM, vs DMSO",0.334
same,Log2(fold-change) NAGA,"[1]; gene NAGA, 1 µM, vs DMSO",0.034
same,Log2(fold-change) NAGLU,"[1]; gene NAGLU, 1 µM, vs DMSO",0.982
same,Log2(fold-change) NCSTN,"[1]; gene NCSTN, 1 µM, vs DMSO",0.166
same,Log2(fold-change) NEU1,"[1]; gene NEU1, 1 µM, vs DMSO",2.366
same,Log2(fold-change) NEU4,"[1]; gene NEU4, 1 µM, vs DMSO",1.289
same,Log2(fold-change) NPC1,"[1]; gene NPC1, 1 µM, vs DMSO",1.530
same,Log2(fold-change) NPC2,"[1]; gene NPC2, 1 µM, vs DMSO",1.822
same,Log2(fold-change) OSTM1,"[1]; gene OSTM1, 1 µM, vs DMSO",1.559
same,Log2(fold-change) PCYOX1,"[1]; gene PCYOX1, 1 µM, vs DMSO",0.963
same,Log2(fold-change) PPT1,"[1]; gene PPT1, 1 µM, vs DMSO",-0.819
same,Log2(fold-change) PPT2,"[1]; gene PPT2, 1 µM, vs DMSO",-0.987
same,Log2(fold-change) PSAP,"[1]; gene PSAP, 1 µM, vs DMSO",1.511
same,Log2(fold-change) RNASET2,"[1]; gene RNASET2, 1 µM, vs DMSO",1.008
same,Log2(fold-change) SCARB2,"[1]; gene SCARB2, 1 µM, vs DMSO",0.201
same,Log2(fold-change) SCPEP1,"[1]; gene SCPEP1, 1 µM, vs DMSO",1.441
same,Log2(fold-change) SGSH,"[1]; gene SGSH, 1 µM, vs DMSO",0.983
same,Log2(fold-change) SIAE,"[1]; gene SIAE, 1 µM, vs DMSO",0.365
same,Log2(fold-change) SLC17A5,"[1]; gene SLC17A5, 1 µM, vs DMSO",1.220
same,Log2(fold-change) SLC36A1,"[1]; gene SLC36A1, 1 µM, vs DMSO",0.968
same,Log2(fold-change) SMPD1,"[1]; gene SMPD1, 1 µM, vs DMSO",0.723
same,Log2(fold-change) TMEM74,"[1]; gene TMEM74, 1 µM, vs DMSO",2.173
same,Log2(fold-change) TMEM92,"[1]; gene TMEM92, 1 µM, vs DMSO",-1.444
same,Log2(fold-change) TPP1,"[1]; gene TPP1, 1 µM, vs DMSO",1.361
same,Kd,[2],≤ 2 nM
